Laboratory results from patent publication US9241928B2, “Antimicrobial compounds” (The General Hospital Corporation, priority 2009, dated 2016).
In brackets after ≈: the same amount, converted by molar mass.

Assays:
E. faecalis MMH594 = assay: MIC assay, E. faecalis in vitro; assay type: cell-based; settings: Enterococcus faecalis; E. faecalis MMH594 in 20% BHI, 80% M9, 37° C., 15 hours, scored by eye
Experimental: A culture of E. faecalis MMH594 was grown overnight in BHI broth to stationary phase at 37° C. with aeration. The culture was diluted to an approximate density of […] in worm infection media (20% BHI, 80% M9 buffer). 12.5 μl of the bacterial culture dilution was inoculated into 384-well plates containing 12.5 μl of 2-fold serial dilutions of a test compound. […] Plates were incubated at 37° C. for 15 hours and scored by eye for bacterial growth.

[1] = test system: C. elegans infected with E. faecalis; assay: Dose response time courses in the C. elegans-E. faecalis infection assay; assay type: in vivo, Caenorhabditis elegans; settings: Effective Concentration: survival significantly different from mock-treated, p-value <0.05, logrank; read-out: EC
Experimental: glp-4(bn2); sek-1 (km4) mutant worms were grown to gravid adult stage. 1,000 worms at the L1 stage were grown for 5.2 days at 15° C. on 9-cm plates of SK agar media spread with a lawn of E. coli strain HB101. Embryos from the gravid adults were isolated by a previously described hypochlorite method (see Tan et al., (1999) Proc. Natl. Acad. Sci. USA 96, 715-720) and hatched at 15° C. for 2 days. Approximately 4,500 of the Ll hatchlings were grown on each 9-cm plate of SK-NS agar (SK media with 62.5 U/ml nystatin and 100 μg/ml streptomycin) and with lawns of E. coli HB101. These worms were grown at 25° C. for 52 hours to generate sterile, young adults.
A culture of E. faecalis MMH594 was grown in BHI broth (BD Difco) with 80 μg/ml kanamycin at 37° C. for 6 hours and 100 μl of the culture were spread onto each 9-cm plate of BHI agar containing 80 μg/mlkanamycin. Lawns of E. faecalis were grown at 25° C. for 16 hours and transferred to 15° C. for 8 hours.
Sterile adult worms were resuspended in M9 buffer and washed twice with M9 in a 1:10 ratio to remove E. coli. 8,000 worms were pipetted onto each lawn of E. faecalis and incubated 15 hours at 15° C. After infection, the worms were resuspended in M9 and used as described below. 384-well plates (Corning #3712) were filled with 55 μl media (see below) using a Thermo Scientific MULTIDROP Combi reagent dispenser. 0.3 μl of a candidate compound in DSMO were pin transferred into each well using a CyBio CYBI-Well vario transfer system. The plates were agitated using an Eppendorf MIXMATE at 1,800 rpm for 15 seconds. Using the Union Biometrica Complex Object Parametric Analyzer and Sorter (COPAS) BIOSORT worm sorter according to manufacturer's protocols, 15 of the infected worms were transferred to each well in a total volume of approximately 15 μl. Total volume per well is 70 μl/well with a final composition of the media being 20% BHI, […], 80 μg/ml kanamycin, 62.5 U/ml nystatin, 1% DMSO, and 19% sheath solution (Union Biometrica Part #300-5101-000). Plates were vortexed for 5 seconds, centrifuged at 1000×g for 10 seconds, and sealed with gas permeable membranes (BREATHEASY Diversified). Plates were placed in a single layer on the top shelves in a 26.3° C. incubator at 85% relative humidity (RH) and incubated without agitation for 5 days.
The dose dependence of certain antimicrobial compounds identified by the assay above were studied. These compounds were purchased in a larger amount from commercial sources. For each of these compounds, an infection assay was performed essentially as described above at different concentrations except that SYTOX staining was not used. Instead, bright-field images of the wells were acquired at daily time points and scored manually for worm survival by analyzing worm body positioning. […] All compounds used in this assays were confirmed for their identity and purity by liquid chromatography/mass spectrometry.

E. faecalis strain V583 [2] = assay: Biofilm formation assay (crystal violet); assay type: cell-based, Enterococcus faecalis; settings: 10 μg/ml, 24 hours
Experimental: To test the efficacy of candidate compounds on biofilm formation, a dilute bacterial culture of Enterococcus faecalis was incubated with candidate compounds in polystyrene plates and the level of biofilm formation was quantified by measuring the amount of crystal violet absorbed by the biofilm mass attached to plastic. First, E. faecalis strain V583 was grown at 37° C. for 16 hours in Tryptic Soy Broth (TSB) with 1% glucose. The bacterial culture was diluted to OD600=0.025 in fresh medium and was dispensed into 96-well polystyrene plates. Candidate compounds dissolved in dimethylsulfoxide (DMSO) were added to the wells to provide a final concentration of 10 μg/ml and the plates were incubated statically at 37° C. for 24 hours. After incubation, the medium was aspirated, the planktonic cells were removed by washing with phosphate buffered saline (PBS), and the plates were inverted and dried for 1 hour at room temperature. The biofilm mass was stained with 0.2% crystal violet for 15 minutes and extraneous crystal violet was washed away with PBS. The crystal violet absorbed by the biofilm was extracted with an 80% ethanol, 20% acetone mixture and the absorbance at 595 nm (OD595) was read with a spectrophotometer.

E. faecalis strain V583 [3] = assay: Biofilm maintenance assay (crystal violet); assay type: cell-based, Enterococcus faecalis; settings: 10 μg/ml added to biofilm established for 24 hours
Experimental: To test for the efficacy of candidate compounds on biofilm maintenance, a bacterial culture of OD600=0.025 was grown in 96-well polystyrene plates for 24 hours as described above to establish biofilm mass prior to the addition of candidate compounds dissolved in DMSO at a final concentration of 10 μg/ml. The plates were then processed as described above.

[4] = test system: E. faecalis strain MMH594; assay: Antimicrobial (bacterial killing) assay; assay type: cell-based, Enterococcus faecalis; settings: mM concentrations, 1 to 30 minutes, room temperature
Experimental: Compounds 6, 7, 15 were purchased from TimTec and ChemDiv, dissolved in DMSO at a concentration of 5 or 10 mg/ml, and further diluted in DMSO as indicated. E. faecalis strain MMH594 was grown overnight with aeration at 37° C. in Bacto brain heart infusion (BHI) broth (Becton Dickinson), transferred to ice, and washed in phosphate-buffered saline (PBS; pH 7.2). Equal volumes of a dissolved compound and bacteria were mixed, incubated at room temperature for 1 to 30 minutes, ten-fold serially diluted in PBS, and plated in […] droplets on BHI agar plates. Plates were incubated at room temperature until colonies were visible.

Drosophila infection = assay: Drosophila infection-survival bioassay (data not shown); assay type: in vivo
[5] = test system: a different Enterococcus faecalis strain; assay: Bacterial killing, different Enterococcus faecalis strain (data not shown); assay type: cell-based
[6] = test system: a Staphylococcus aureus strain; assay: Bacterial killing, Staphylococcus aureus strain (data not shown); assay type: cell-based
T24B8.5::GFP = assay: Immune GFP reporter induction, transgene acIs219; assay type: in vivo, Caenorhabditis elegans; settings: compound-exposed versus DMSO-exposed animals, visual
Description: (§1) Caenorhabditis elegans strains were maintained on Escherichia coli OP50 as described in Brenner, Genetics, 1974, 77:71-94. Wildtype N2 nematodes carrying integrated transgenes acIs219 (AU78), acIs101(AY101), agIs17(AU133), or agIs26 (AU185) (see (1) Shivers, et al., PLoS. Genet. 2010, 6: e1000892, (2) Bolz et al., J. Biol. Chem. 2010, 285:10832-40, (3) Estes et al., Proc. Natl. Acad. Sci., 2010, 107:2153-8, and (4) Irazoqui et al., Proc. Natl. Acad. Sci., 2008, 105:17469-74) were used to assay the immunomodulatory activity of candidate compounds. For qRT-PCR experiments, RNA was extracted from synchronized young adult nematodes exposed to a candidate compound or DMSO (as a control) using TRI Reagent and reverse transcribed using the Retroscript kit (Ambion). This cDNA was then subjected to qRT-PCR analysis using SYBR green detection on a CFX1000 machine (Bio-Rad, http://www.bio-rad.com). Primers for qRT-PCR were obtained from published sequences (see Irazoqui et al., Proc. Natl. Acad. Sci., 2008, 105:17469-74 and Troemel et al., PLoS Genet. 2006, 2:e183). […] Fold change was calculated using the Pfaffl method (see Pfaffl et al., Nucleic Acids Res., 2001, 29:e45).
Without wishing to be bound by theory, it was hypothesized that a subset of these compounds cured nematode infection by directly activating the innate immune response of the animal. To test this hypothesis, a multi-faceted approach was used. First, the inventors studied four C. elegans strains in which the promoter of the nematode immune response genes T24B8.5, F35E12.5, irg-1 and clec-60 were individually fused to GFP, generating transgenes acIs219 (AU78), acIs101(AY101), agIs17(AU133), or agIs26 (AU185), respectively, thereby allowing a visual readout of gene activity in each strain. Using these reporter strains, the ability of 33 compounds previously shown to have anti-Enterococcal killing activity in the C. elegans infection assay (24 of which have been described above) were tested for their ability to modulate the nematode immune response.

C17H12.8 = assay: qRT-PCR of immune response gene expression; assay type: in vivo, Caenorhabditis elegans; settings: 20 μg/mL versus DMSO
Description: as §1
(§2) By using the assay described above, the inventors identified five compounds (i.e., Compounds 11, 18, 20, 25, and 26) that robustly and reproducibly activated the immune GFP reporters (see FIG. 5 and Table 3) or activated selected immune response genes as determined by quantitative RT-PCR analysis (see Table 4). For the latter experiments, RNA was isolated from wild-type C. elegans N2 or pmk-1 mutant animals exposed to the candidate immunomodulatory compounds at 20 μg/mL and from animals exposed to DMSO. The inventors tested several immune response genes in compound-exposed animals that are known to be regulated by PMK-1, the p38 Mitogen Acitvated Protein kinase homolog, an evolutionary-conserved, central regulator of nematode immunity. The inventors also used qRT-PCR to measure the activation of several immune response genes that are known to be activated independently of PMK-1. […] Thus, without wishing to be bound by theory, it is believed that a subset of the compounds identified in the screen for novel anti-infective compounds directly stimulate the immune response of the nematode and that these compounds act both by directly stimulating the PMK-1 pathway and by unidentified parallel immune response pathways.

C49G7.5 = assay: qRT-PCR of immune response gene expression; assay type: in vivo, Caenorhabditis elegans; settings: 20 μg/mL versus DMSO
Description: as §1, §2

F35E12.5 = assay: qRT-PCR of immune response gene expression; assay type: in vivo, Caenorhabditis elegans; settings: 20 μg/mL versus DMSO
Description: as §1, §2

F53E10.4 = assay: qRT-PCR of immune response gene expression; assay type: in vivo, Caenorhabditis elegans; settings: 20 μg/mL versus DMSO
Description: as §1, §2

F56D6.2 = assay: qRT-PCR of immune response gene expression; assay type: in vivo, Caenorhabditis elegans; settings: 20 μg/mL versus DMSO
Description: as §1, §2

T24B8.5 = assay: qRT-PCR of immune response gene expression; assay type: in vivo, Caenorhabditis elegans; settings: 20 μg/mL versus DMSO
Description: as §1, §2

irg-1 = assay: qRT-PCR of immune response gene expression; assay type: in vivo, Caenorhabditis elegans; settings: 20 μg/mL versus DMSO
Description: as §1, §2

immune response genes = assay: qRT-PCR of immune response genes, PMK-1 dependence (overall); assay type: in vivo, Caenorhabditis elegans; settings: 20 μg/mL, N2 or pmk-1 mutant animals
Description: as §1
By using the assay described above, the inventors identified five compounds (i.e., Compounds 11, 18, 20, 25, and 26) that robustly and reproducibly activated the immune GFP reporters (see FIG. 5 and Table 3) or activated selected immune response genes as determined by quantitative RT-PCR analysis (see Table 4). For the latter experiments, RNA was isolated from wild-type C. elegans N2 or pmk-1 mutant animals exposed to the candidate immunomodulatory compounds at 20 μg/mL and from animals exposed to DMSO. The inventors tested several immune response genes in compound-exposed animals that are known to be regulated by PMK-1, the p38 Mitogen Acitvated Protein kinase homolog, an evolutionary-conserved, central regulator of nematode immunity. The inventors also used qRT-PCR to measure the activation of several immune response genes that are known to be activated independently of PMK-1. […]

O=C(O)C1CC(=O)N(CCC23CC4CC(CC(C4)C2)C3)/C(=N\c2ccc(Cl)cc2)S1 (stereo not shown) [Compound 6]
MIC (E. faecalis MMH594): 6.25 µg/mL (≈ 14 µM) | minimal effective concentration [1]: 0.39 µg/mL | biofilm formation (OD595, FIG. 3A) (E. faecalis strain V583 [2]): prevented E. faecalis biofilm formation | biofilm maintenance (OD595, FIG. 3B) (E. faecalis strain V583 [3]): disrupted biofilm once it was formed | bactericidal activity (FIGS. 7A and 7B) [4]: rapid killing of bacteria | bactericidal activity in Drosophila infection-survival bioassay (Drosophila infection): showed bactericidal activity | killing of a different Enterococcus faecalis strain [5]: killed | killing of a Staphylococcus aureus strain [6]: killed

O=C(O)CSCC(=O)N1CCn2c3c(c4cc(C5CCCCC5)ccc42)CCCC31 (stereo not shown) [Compound 15]
bactericidal activity (FIGS. 7A and 7B) [4]: rapid killing of bacteria | bactericidal activity in Drosophila infection-survival bioassay (Drosophila infection): showed bactericidal activity | killing of a different Enterococcus faecalis strain [5]: killed | killing of a Staphylococcus aureus strain [6]: killed

CC(C)(c1ccc(NS(=O)(=O)C(F)(F)F)cc1)c1ccc(C(C)(C)c2cccc(NS(=O)(=O)C(F)(F)F)c2)cc1 [Compound 18]
immune reporter induction T24B8.5::GFP (T24B8.5::GFP): + | C17H12.8 expression, average fold-change (C17H12.8; genotype N2): 10.2 fold-change | C17H12.8 expression, average fold-change (C17H12.8; genotype pmk-1(km25)): 0.3 fold-change | C49G7.5 expression, average fold-change (C49G7.5; genotype N2): 11.1 fold-change | C49G7.5 expression, average fold-change (C49G7.5; genotype pmk-1(km25)): 57.4 fold-change | F35E12.5 expression, average fold-change (F35E12.5; genotype N2): 10.6 fold-change | F35E12.5 expression, average fold-change (F35E12.5; genotype pmk-1(km25)): 0.4 fold-change | F53E10.4 expression, average fold-change (F53E10.4; genotype N2): 0.2 fold-change | F53E10.4 expression, average fold-change (F53E10.4; genotype pmk-1(km25)): 0.3 fold-change | F56D6.2 expression, average fold-change (F56D6.2; genotype N2): 2.2 fold-change | F56D6.2 expression, average fold-change (F56D6.2; genotype pmk-1(km25)): 1.0 fold-change | T24B8.5 expression, average fold-change (T24B8.5; genotype N2): 2.6 fold-change | T24B8.5 expression, average fold-change (T24B8.5; genotype pmk-1(km25)): 0.3 fold-change | irg-1 expression, average fold-change (irg-1; genotype N2): 1.5 fold-change | irg-1 expression, average fold-change (irg-1; genotype pmk-1(km25)): 4.4 fold-change | PMK-1 dependence of immune response gene activation (immune response genes): activated at least one immune response gene in the nematode in a manner independent of PMK-1
